Where a name gives a salt, the structure may show the parent alone.
Tests used:
[1] = system: PPI deficits produced by the alpha-1 adrenergic agonist cirazoline; experiment: Cirazoline-induced disruption of prepulse inhibition (PPI) of the startle reflex; assay type: in vivo, Sprague Dawley rats; conditions: for PPI of saline/cirazoline rats versus saline/saline rats: cirazoline 0.7 mg/kg SC
Protocol: (§1) Animals: Ninety-six male Sprague Dawley rats (250-300 grams at testing) were obtained from Harlan Laboratories, San Diego. In the experiments of Example 1, all groups contained an n of 8. Animals were housed in groups of two or three in clear plastic chambers in a climate controlled room on a 12:12 hour light/dark cycle (lights on 7:00 a.m.-7:00 p.m.). The rats were handled prior to testing. All testing occurred during the light phase of the rats' circadian illumination schedule and they were allowed free access to food and water for the extent of the study, except during the actual testing. Behavioral testing was performed between 9:00 am and 4:30 pm beginning 7 days after arrival. All studies described in this publication were carried out in accordance with the “Principles of laboratory and animal care” as described in the Guide for the Care and Use of Laboratory Animals as adopted and promulgated by the National Institutes of Health.
(§2) Drugs: PD149163 (LysΨ(CH2NH)-Lys-Pro-Trp-tLeu-Leu-OEt) was generously made available by the NIMH Chemical Synthesis and Drug Supply Program, and SR1 International, Menlo Park, Calif. NT69L (N-methyl-Arg-Lys-Pro-L-neo-Trp-tLeu-Leu) was developed at Mayo Clinic, Jacksonville, Fla., as described in Tyler-McMahon et al. 2000. DOI and cirazoline hydrochloride were obtained from Sigma Chemicals, St. Louis, Mo. All drugs used were dissolved in saline.
(§3) Startle Testing and Test Sessions. Startle testing was performed in four identical startle chambers obtained from San Diego Instruments (San Diego, Calif.). Each chamber consisted of a clear non-restrictive Plexiglass cylinder resting on a Plexiglass platform inside a ventilated and illuminated enclosure housed in a sound-attenuated room. A continuous background noise of 65 dB, as well as the various acoustic stimuli, was produced within each chamber by a high-frequency loudspeaker (Radio Shack Supertweeter, San Diego, Calif.). The whole-body startle response of each animal produced vibrations of the Plexiglass cylinder, which were transduced into analog signals by a piezoelectric unit, mounted underneath the Plexiglass platform (Mansbach et al., 1988). These analog signals were then digitized and stored by an interface unit connected to a microcomputer. Startle amplitude was defined as the degree of motion detected by the piezoelectric unit.
(§4) The animals were subjected to a 5-minute acclimation to the 65 dB background noise, which continued throughout the session. The acclimation was followed by a 15 minute PPI test session. Five trial types were presented during the test session: 40 msec 120 dB startle pulses (PULSE-ALONE), startle pulses preceded 100 msecs by 20 msec prepulses of either 4, 8, or 12 dB above background, and NO-[…] trials. All trial types were presented in pseudo-random order separated by an average of 15 seconds. In addition, four PULSE-ALONE trials that were not used in the calculation of PPI values were presented at the beginning and at the end of the test session, to habituate animals to the pulse and in order to provide a measure of habituation across the session.
PD149163 versus cirazoline. Thirty-two drug-naïve rats were administered SC injections of the following doses of PD149163, 0 (saline), 0.01, 0.1, or 1 mg/kg. Thirty minutes later, they were injected SC with either saline or cirazoline (0.7 mg/kg), a dose known to reliably disrupt PPI. Animals were tested in startle chambers thirty minutes later and PPI measured as described. […]

[2] = system: PPI deficits produced by DOI; conditions: reported by Geyer et al.; cited from earlier work
[3] = system: Brown Norway (BN) rats; experiment: PPI in Brown Norway rats with low PPI; assay type: in vivo; conditions: acute administration
[4] = system: BB rats; experiment: Catalepsy bar test; assay type: in vivo, Brattleboro rats; conditions: 30 min after SC: haloperidol 1 mg/kg (P<0.001), clozapine 10 or 15 mg/kg, PD149163 1 or 2 mg/kg; versus saline
Protocol: Doses selected were those that produced the greatest effect in the PPI studies. Thirty minutes after SC injections animals were tested in the using a method described by several other authors (Stanley and Glick, 1976; Costall et al., 1978; Wadenberg, 1996). This method involved placing the forepaws of each rat in an extended position over a pencil that was suspended horizontally 9 cm above the lab bench. The time spent in this position before the animal moved or corrected itself was considered a measure of catalepsy.

[5] = system: PPI deficits produced by the serotonin-2A agonist DOI; experiment: DOI-induced disruption of prepulse inhibition (PPI) of the startle reflex; assay type: in vivo, Sprague Dawley rats; conditions: for startle magnitude (main effect, ANOVA): NT69L versus DOI experiment
Protocol: as §1, §2, §3, §4
NT69L versus DOI. Thirty-two drug-naïve rats were administered subcutaneous (SC) injections of the following doses of NT69L, 0 (saline), 0.1, 1, or 2 mg/kg. Thirty minutes later, they were injected SC with either saline or DOI (0.5 mg/kg), a dose known to reliably disrupt PPI. Animals were tested in startle chambers thirty minutes later and PPI measured as described. After one week, animals were tested a second time during which treatment and testing procedures were the same except that rats that previously received DOI received saline and vice versa. The dose of NT69L was kept constant on both test days.
Data and Statistical Analysis. A startle response was recorded for all stimuli presentations. […]

[6] = system: PPI; conditions: sedating psychotropic drug without antipsychotic properties; cited from earlier work
[7] = system: alpha-1 adrenergic receptors; conditions: cited from earlier work
[8] = system: monoamine receptors; conditions: cited from earlier work
[9] = molecular target: serotonin-2A receptor (Homo sapiens, UniProt P28223); conditions: cited from earlier work
serotonin-2A receptor, sequence (P28223 whole entry): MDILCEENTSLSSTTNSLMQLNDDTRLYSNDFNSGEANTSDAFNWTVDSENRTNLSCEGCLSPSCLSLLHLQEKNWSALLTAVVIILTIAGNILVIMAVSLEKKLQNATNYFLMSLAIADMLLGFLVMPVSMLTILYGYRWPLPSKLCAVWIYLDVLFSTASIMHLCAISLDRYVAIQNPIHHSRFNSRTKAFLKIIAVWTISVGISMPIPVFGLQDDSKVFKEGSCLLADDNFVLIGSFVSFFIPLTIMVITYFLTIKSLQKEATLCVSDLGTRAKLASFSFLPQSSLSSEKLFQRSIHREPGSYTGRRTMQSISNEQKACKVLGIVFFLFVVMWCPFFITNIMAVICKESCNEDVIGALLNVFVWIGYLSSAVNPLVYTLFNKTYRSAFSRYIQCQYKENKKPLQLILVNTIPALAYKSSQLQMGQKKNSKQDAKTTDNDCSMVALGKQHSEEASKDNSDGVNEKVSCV

## c1ccc(C2CC2)c(OCC2=NCCN2)c1 [cirazoline, cirazoline hydrochloride]
[1]; NT69L experiment, P<0.05
  PPI of saline/cirazoline rats versus saline/saline rats: significantly decreased PPI
[1]; PD149163 experiment, P<0.01
  PPI of saline/cirazoline rats versus saline/saline rats: significantly decreased PPI

## CCN1CCC[C@H]1CNC(=O)c1c(O)c(Cl)cc(Cl)c1OC [raclopride]
[2]
  effect on PPI deficits produced by DOI: do not block DOI-induced PPI deficits

## O=C(CCCN1CCC(O)(c2ccc(Cl)cc2)CC1)c1ccc(F)cc1 [haloperidol]
[2]
  effect on PPI deficits produced by DOI: do not block DOI-induced PPI deficits
[3]
  PPI in BN rats: did not enhance PPI
[4]
  catalepsy: time rats remained on the bar: significantly increased the time rats remained on the bar

## COc1cc(CC(C)N)c(OC)cc1I.Cl (centres unmarked) [DOI, 1-(2,5-dimethoxy-4-iodophenyl)-2-aminopropane hydrochloride]
[5]; DOI 0.5 mg/kg SC, P<0.001
  PPI of saline/DOI rats versus saline/saline rats: significantly decreased PPI
[5]
  startle magnitude (main effect, ANOVA): no significant main effect

## Cc1nc2n(c(=O)c1CCN1CCC(c3noc4cc(F)ccc34)CC1)CCCC2 [risperidone]
[2]
  effect on PPI deficits produced by DOI: antagonize PPI deficits produced by DOI

## CN1CC[C@@H]2CN3CCc4cccc(c43)[C@@H]2C1.O=C(O)/C=C/C(=O)O [SDZ SER-082]
[2]
  effect on PPI deficits produced by DOI: do not block DOI-induced PPI deficits

## CN1C(=O)CN=C(c2ccccc2)c2cc(Cl)ccc21 [diazepam]
[6]
  effect on PPI: decrease rather than facilitate PPI

## CN1CCN(C2=Nc3cc(Cl)ccc3Nc3ccccc32)CC1 [clozapine]
[4]
  catalepsy: time rats remained on the bar: no dose of clozapine or PD149163 significantly increased

## COc1cccc([C@H](O)C2CCN(CCc3ccc(F)cc3)CC2)c1OC [MDL100907]
[2]
  effect on PPI deficits produced by DOI: antagonize PPI deficits produced by DOI

## N-methyl-Arg-Lys-Pro-L-neo-Trp-tLeu-Leu [NT69L]
[5]; NT69L 0.1 mg/kg SC + DOI 0.5 mg/kg SC, P<0.001
  PPI versus rats that received DOI/saline: significantly greater than PPI exhibited by rats that received DOI/saline
[5]; NT69L 1 mg/kg SC + DOI 0.5 mg/kg SC, P<0.05
  PPI versus rats that received DOI/saline: significantly greater than PPI exhibited by rats that received DOI/saline
[5]; NT69L 2 mg/kg SC + DOI 0.5 mg/kg SC, P<0.01
  PPI versus rats that received DOI/saline: significantly greater than PPI exhibited by rats that received DOI/saline
[5]
  startle magnitude (main effect, ANOVA): no significant main effect
[5]; all three active doses of NT69L (0.1, 1, 2 mg/kg SC) 30 min before DOI 0.5 mg/kg SC, tested 30 min later
  effect on DOI-induced PPI deficits: blocked the PPI deficits produced by DOI
[7]
  binding to alpha-1 adrenergic receptors: neither PD149163 or NT69L bind
[1]; NT69L 1 mg/kg SC 30 min before cirazoline 0.7 mg/kg SC
  effect on cirazoline-induced PPI deficits: blocked the PPI deficits produced by cirazoline
[1]; cirazoline + NT69L 1 mg/kg SC, P<0.05
  startle versus rats that received cirazoline and saline: significantly lower
[1]; cirazoline experiments, PD149163 P<0.05, NT69L P<0.01
  startle magnitude (main effect, ANOVA): significant main effect
[8]
  affinity for monoamine receptors: minimal affinity
[9]
  binding to serotonin-2A receptors: neither PD149163 or NT69L bind

## O=C(c1ccc(F)cc1)C1CCN(CCn2c(=O)[nH]c3ccccc3c2=O)CC1 [ketanserin]
[2]
  effect on PPI deficits produced by DOI: antagonize PPI deficits produced by DOI

## CC(C)NCC(O)COc1cccc2ccccc12 (centres unmarked) [propanolol]
[2]
  effect on PPI deficits produced by DOI: do not block DOI-induced PPI deficits

Source: patent US20060179492A1, “Method of inhibiting neural transmission mediated by serotonin-2a and enhancing sensorimotor gating” (The Regents of the University of California, priority 2002, published 2006)
